For 18 molecules, TGI and GI50 results are on record in PubChem BioAssay (NCI).

Holding throughout (experiment): inhibition of tumour cell growth, NCI panel, 48 h
Test [1] has as its system TK-10 renal.
The test system of test [2] is RPMI-8226 leukemia.
The test system of test [3] is SNB-19 CNS.
For test [4], the system named is MOLT-4 leukemia.
For test [5], the system named is MCF7 breast.
In test [6] the test system is UACC-62 melanoma.
In test [7] the test system is SK-OV-3 ovarian.
The test system of test [8] is IGROV1 ovarian.
Test [9] relates to A498 renal.
The subject of test [10] is M14 melanoma.

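48-hour exposure; five concentrations; linearly interpolated endpoints. GI50: concentration for 50% inhibition of growth. TGI denotes the concentration required for complete inhibition of growth.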

Turning to `CCOc1cc2c(NCCCN(CCO)CCO)ncnc2c(OCC)c1OCC`, the TGI in [1], in [2], in [3], in test [4], in test [5] and in test [6] was over 100 µM in each case. Moreover, the TGI in [7], in test [8], in test [9] and in test [10] was over 100 µM each time.
On to `Cn1c(=O)c(Oc2ccccc2F)cc2cnc(NC3CCOCC3)nc21`, for which the GI50 in test [1], in test [2], in [3], in test [4], in [5] and in test [6] was over 25 µM each time. Besides, the GI50 is over 25 µM in test [7], over 25 µM in test [8], over 14.7 µM in [9] and over 25 µM in test [10]. Also, the TGI in [1], in [2], in [3], in [4], in test [5] and in test [6] was over 25 µM in each case. Moreover, the TGI in test [7], in test [8], in test [9] and in test [10] was over 25 µM in each case.
Regarding `COc1ccccc1NC(=O)n1nc(N)c2ccccc21`, the GI50 is 64.2 µM in test [1]; 48.7 µM in test [2]; over 100 µM in [3]; 67.4 µM in test [4]; 0.0842 µM in [5]; over 100 µM in test [6]. Moreover, the GI50 in [7] was over 100 µM; in test [8], 14.7 µM; in test [9], over 68.7 µM; in test [10], over 100 µM. For the same molecule, the TGI is over 100 µM in test [1]; over 100 µM in test [2]; over 100 µM in test [3]; over 100 µM in test [4]; 4.32 µM in [5]; over 100 µM in test [6]. Further, the TGI in test [7], in [8], in test [9] and in test [10] was over 100 µM each time.
For the molecule `CC(C)(C)NCc1cc(C(C)(C)C)cc(-c2ccc(Cl)cc2)c1O`, the TGI worked out at 26 µM in test [1]; 40.5 µM in [2]; 30.5 µM in test [3]; 32.7 µM in [5]; 32 µM in test [6]; 31.5 µM in test [7]. For the same molecule, the TGI in test [8] was determined as 24.6 µM; in test [10], 28.8 µM.
As to `COc1cc(/C=C2\CC3C4CC=C5C[C@@H](OC(C)=O)CC[C@]5(C)C4CC[C@]3(C)C2=O)ccc1OCCCn1ccnc1` (some centres undefined), the GI50 in test [1] was 7.08 µM; in [2] it was 9.66 µM; in test [3], 20.2 µM; in [4] it was 20.5 µM; in test [5], 9.36 µM; in test [6], 8.4 µM. Besides, the GI50 in test [8] is 13.7 µM; in test [9] it was 9.31 µM; in test [10] it was 9.28 µM. Moreover, the TGI in [1] is 17.3 µM; in [2], 24.2 µM; in test [3] it was over 50 µM; in test [4] it was over 50 µM; in test [5] it was 21 µM; in test [6] it was 16.5 µM. Besides, the TGI was 46.8 µM in [8], 21.6 µM in test [9] and 17.9 µM in test [10].
In the case of `Cn1ncc2c(N)nc(N3CCCCC3)nc21`, the GI50 in test [1] is 22.9 µM; in test [2], 33.1 µM; in [3], 22.5 µM; in [5], 17.1 µM; in [6] it was 19.6 µM; in test [7], 22.5 µM. In addition, the GI50 in test [8] is 33.9 µM; in [9] it was 18.5 µM; in [10], 42.6 µM. The TGI in test [1] was 77.8 µM; in test [2] it was over 100 µM; in test [3], over 100 µM; in test [5], 39.9 µM; in test [6], 37.3 µM; in test [7] it was over 100 µM. Further, the TGI in [8] is over 100 µM; in test [9], 42.9 µM; in test [10] it was over 100 µM.
For `Nc1ccc2c(c1)NCCN2`, the TGI is over 100 µM in test [1]; over 100 µM in [2]; over 100 µM in [3]; 89.7 µM in [4]; over 100 µM in [5]; over 100 µM in [6]. Moreover, the TGI in [8] and in [10] was over 100 µM in each case.
Turning to `Nc1ccc(S(=O)(=O)C23CC4CC(CC(C4)C2)C3)cc1`, the TGI in [1], in test [2], in test [3], in test [5], in test [6] and in test [7] was over 100 µM each time. The TGI in test [8], in test [9] and in test [10] was over 100 µM each time.
As for `Nc1nnc2cc(Cl)ccc2n1`, the GI50 in test [2], in test [3], in test [4], in [5], in [6] and in [7] was over 100 µM in each case. The GI50 is 34.3 µM in [8], over 100 µM in [9] and over 100 µM in [10]. The TGI in test [2], in [3], in test [4], in test [5], in test [6] and in test [7] was over 100 µM each time. Also, the TGI in test [8], in [9] and in [10] was over 100 µM each time.
With `CC1=C[C@H]2c3c(c(O)c(O)c4oc5ccccc5c(=O)c34)[C@H](c3cc(O)c(O)c4oc5ccccc5c(=O)c34)[C@H]2C(C)(C)C1`, the GI50 in test [1] was 2.19 µM; in test [3] it was 1.17 µM; in test [4] it was 0.802 µM; in [5] it was 0.772 µM; in test [6] it was 0.707 µM; in test [7] it was 2.5 µM. Also, the results for the GI50 in test [8], in [9] and in test [10] were 1.05 µM, 0.519 µM and 1.36 µM, respectively. The TGI in test [1] is 15.3 µM; in test [3], 14.1 µM; in [4], 24.1 µM; in [5] it was 11.1 µM; in [6] it was 2.33 µM; in [7] it was 14.2 µM. Besides, the TGI in [8] was 8.09 µM; in [9], 3.38 µM; in test [10], 5.66 µM.
In the case of `NC1CCN(c2nc(Nc3cccc(C(F)(F)F)c3)c3c(=O)[nH]ccc3n2)CC1`, the GI50 in [1] was 1.3 µM; in [2], 1.91 µM; in [3], 2 µM; in [4] it was 1.05 µM; in [5] it was 1.35 µM; in test [6] it was 1.83 µM. The GI50 in test [7] was 1.08 µM; in test [9], 1.64 µM; in [10] it was 1.01 µM. Further, the TGI in test [1] worked out at 2.72 µM; in test [2], 4.84 µM; in test [3], 3.59 µM; in test [4], 4.8 µM; in [5] it was 3.02 µM; in test [6] it was 3.51 µM. Besides, the figures for the TGI in test [7], in test [9] and in test [10] were 2.39 µM, 3.14 µM and 2.23 µM, respectively.
For the molecule `CCOC(=O)C(CO)c1nc2c([nH]c1=O)c(=O)n(C)c(=O)n2C` (centres undefined), the TGI in [1], in [2], in [3], in test [5], in [6] and in test [8] was over 100 µM each time. The TGI in [9] and in test [10] was over 100 µM throughout.
In the case of `NC(=O)c1cc(Br)cc(C2CCCCC2)c1O`, the GI50 was 13.4 µM in test [1]; 13.8 µM in [3]; 13.9 µM in test [4]; 15.8 µM in test [5]; 11.5 µM in test [6]; 17.2 µM in test [7]. Also, the GI50 in [8] was 12.4 µM; in test [9], 1.01 µM; in test [10], 12.8 µM. The TGI in test [1] came to 28.1 µM; in test [3], 27.9 µM; in [4], 34.5 µM; in test [5], 30.8 µM; in test [6] it was 23.9 µM; in test [7], 31.1 µM. The TGI in test [8] stood at 25.9 µM; in test [9], 14.8 µM; in test [10], 25.6 µM.
On to `O=C(c1ccc2ncc(-c3nc(NC4CC4)ncc3F)n2c1)N1CCOCC1`, for which the GI50 in [2] is 1.98 µM; in test [4], 2.48 µM; in [5] it was 2.71 µM; in test [6] it was 1.54 µM; in test [8], 2.42 µM; in test [9] it was 1.63 µM. In [10], the GI50 was 1.9 µM. Moreover, the TGI in [2] turned out to be 5.32 µM; in test [4], 7.1 µM; in [5] it was 11 µM; in test [6] it was 3.6 µM; in test [8] it was 12.2 µM; in test [9], 3.82 µM. Also, the TGI in test [10] came to 4.07 µM.
Turning to `COc1cc2c3c(n(CCCNCCN)c(=O)c2cc1OC)-c1cc2c(cc1C3=O)OCO2`, the GI50 was 2.9 µM in test [1]; 0.475 µM in test [2]; 40.8 µM in [3]; under 0.0445 µM in test [4]; 0.616 µM in test [5]; 1.01 µM in test [6]. The results for the GI50 in test [7], in test [8] and in test [10] were over 100 µM, 0.839 µM and 0.738 µM, respectively. In addition, the TGI was 18.9 µM in test [1]; 3.02 µM in test [2]; over 100 µM in test [3]; 0.081 µM in [4]; over 100 µM in test [5]; 2.64 µM in [6]. For the same molecule, the TGI in test [7] is over 100 µM; in test [10] it was 5.26 µM.
For the molecule `Cc1sc(C)c(Cc2c(C)sc(C)c2CCl)c1CCl`, the GI50 in test [1], in [2], in [3], in test [4], in test [5] and in test [7] was over 100 µM throughout. The GI50 in [8], in [9] and in test [10] was over 100 µM in each case. The TGI in [1], in test [2], in test [3], in test [4], in test [5] and in test [7] was over 100 µM in each case. In addition, the TGI in test [8], in [9] and in test [10] was over 100 µM throughout.
In the case of `CC(=O)O[C@H]1CC[C@@]2(C)C(=CC[C@H]3[C@@H]4C/C(=C\c5cccc(OCCN6CCOCC6)c5)[C@H](OC(C)=O)[C@@]4(C)CC[C@@H]32)C1`, the GI50 in test [1] is 11.6 µM; in test [2] it was 2.99 µM; in test [3], 9.13 µM; in [5], 10.4 µM; in test [6] it was 6.1 µM; in test [7] it was 6.85 µM. The results for the GI50 in [8], in test [9] and in test [10] were 25.6 µM, 15.3 µM and 5.91 µM, respectively. Also, the TGI in test [1] came to 48.7 µM; in test [2], 9.92 µM; in test [3] it was 29.3 µM; in test [5], 84.5 µM; in test [6], 19.1 µM; in test [7], 34 µM. The TGI in test [8] worked out at 80.2 µM; in [9], 29.1 µM; in test [10], 18.9 µM.
In the case of `O=S(=O)(NCC1CCC(CNc2ccc(Cl)cc2)CC1)c1ccc(-c2ccccc2)cc1` (centres undefined), the GI50 in test [1] was 22.8 µM; in [2], 12.5 µM; in test [3], over 50 µM; in [5], over 50 µM; in [6], over 50 µM; in test [7], over 50 µM. The GI50 in [8] and in test [10] was over 50 µM each time. The TGI in test [1], in [2], in test [3], in test [5], in test [6] and in test [7] was over 50 µM in each case. The TGI in [8] and in test [10] was over 50 µM each time.
